Reference: patent US20220009987A9, “HUMAN RESISTIN COMPOSITIONS AND METHODS OF TREATING TLR4-MEDIATED DISEASE AND INFECTION” (THE REGENTS OF THE UNIVERSITY OF CALIFORNIA, priority 2017, published 2022)

Legend:
[1] = system: human PBMCs; experiment: Human PBMC functional assay, LPS-induced cytokine secretion (ELISA); assay type: cell-based; details: human PBMC, pre-treatment then LPS 100 ng/mL
Experimental: (§1) Human PBMCs. Human buffy coat was purchased from Zen-bio. Buffy coat was overlaid on top of Histopaque-1077 and spun at 700g at 25° C. with no brake and PBMCs were recovered from the interphase. PBMCs were plated in 96-well plates and stimulated with mammalian-derived human resistin (1 μg/mL, LifeSpan Biosciences) or hRetn N-peptide (1 μg/mL). After 24 hours, ultrapure LPS (100 ng/mL, Invivogen) was added and supernatants recovered for ELISA at 24 hours. Where indicated, cells were incubated for 4 hours with STAT3 (5, 15-DPP, 50 μM) or TBK1 (BX-795, 1 μM) inhibitors prior to hRetn treatment. For the hRetn competitive binding assay, 1×10^6 cells were incubated with recombinant hRetn (0.5 μg), washed in PBS then incubated with 0.5 μg LPS-biotin (incubations were 30 minutes on ice). Cells were washed in FACS buffer, treated with Fc block, and stained with BV605-conjugated streptavidin and α-human primary antibodies: CD14 (clone M5E2), CD11 b (clone M1/70) and MD2/TLR4 (clone HTA125) purchased from Affymetrix.
Cytokine Quantification. Sandwich ELISAs were performed using capture and biotinylated antibodies for human resistin (Peprotech), IL-10 and TNFα (BD Biosciences) according to manufacturer's instructions. Detection was performed with streptavidin-peroxidase (Jackson ImmunoResearch) and TMB peroxidase substrate (BD Biosciences), followed by addition of 2N H2SO4. Optical density (OD) was captured at 450 nm. Samples were compared to serial-fold dilution of recombinant protein. For Luminex, inflammatory cytokine kits (Affymetrix) were run according to manufacturer's instructions and quantified on Luminex MagPix (Luminex Corp.). For cytokine bead array, cytokine kits from BD Bioscience were run according to manufacturer's instructions on BD LSRII and analyzed using FCAP Array Software.

[2] = molecular target: human TLR4 (Homo sapiens, UniProt O00206); experiment: Pull-down assay with His-tagged human TLR4; assay type: binding; details: pre-incubation of His-TLR4 with 500 ng/ml N-peptide, anti-Flag blot
Experimental: Pull-down Assay. 1 μg/ml protein His-tagged MBP, human TLR4 and human CAP1 were added to nickel-nitrilotriacetic acid-agarose beads (Invitrogen) in binding buffer (50 mM NaH2PO4, 500 mM NaCl, 10 mM Imidazole, pH 8.0) and mixed for 1 hour at 4° C., followed by washing and 1 h incubation at 4° C. with hRetn (E. coli-derived, Peprotech or 293T cell-derived, LifeSpan Biosciences) in binding buffer. Beads were washed in wash buffer (50 mM NaH2PO4, 500 mM NaCl, 20 mM Imidazole, pH 8.0), and complex protein eluted with elution buffer (50 mM NaH2PO4, 500 mM NaCl, 250 mM Imidazole, pH 6.0). His-MBP, His-TLR4 and His-CAP1 were detected by anti-His antibody (Abcam), and hRetn was detected by anti-hRetn antibody (donated by Mitchell Lazar) by Western Blot. For the N-peptide binding experiment, 1 μg/ml His-tagged human TLR4 with 500 ng/ml N-peptide or 10% TFE control was added to the beads in binding buffer and mixed for 30 min at 4° C., followed by co-immunoprecipitation using 1 μg/ml Flag-hRetn (LifeSpan Biosciences), anti-His or anti-Flag (Sigma).

[3] = system: CD14+CD11b+ monocytes; experiment: Competitive resistin/LPS binding assay on human PBMCs (flow cytometry); assay type: cell-based; details: for LPS binding to CD14+CD11b+ monocytes: pre-incubation before LPS-biotin, on ice
Experimental: as §1

Sequence of human TLR4 (O00206 24-839): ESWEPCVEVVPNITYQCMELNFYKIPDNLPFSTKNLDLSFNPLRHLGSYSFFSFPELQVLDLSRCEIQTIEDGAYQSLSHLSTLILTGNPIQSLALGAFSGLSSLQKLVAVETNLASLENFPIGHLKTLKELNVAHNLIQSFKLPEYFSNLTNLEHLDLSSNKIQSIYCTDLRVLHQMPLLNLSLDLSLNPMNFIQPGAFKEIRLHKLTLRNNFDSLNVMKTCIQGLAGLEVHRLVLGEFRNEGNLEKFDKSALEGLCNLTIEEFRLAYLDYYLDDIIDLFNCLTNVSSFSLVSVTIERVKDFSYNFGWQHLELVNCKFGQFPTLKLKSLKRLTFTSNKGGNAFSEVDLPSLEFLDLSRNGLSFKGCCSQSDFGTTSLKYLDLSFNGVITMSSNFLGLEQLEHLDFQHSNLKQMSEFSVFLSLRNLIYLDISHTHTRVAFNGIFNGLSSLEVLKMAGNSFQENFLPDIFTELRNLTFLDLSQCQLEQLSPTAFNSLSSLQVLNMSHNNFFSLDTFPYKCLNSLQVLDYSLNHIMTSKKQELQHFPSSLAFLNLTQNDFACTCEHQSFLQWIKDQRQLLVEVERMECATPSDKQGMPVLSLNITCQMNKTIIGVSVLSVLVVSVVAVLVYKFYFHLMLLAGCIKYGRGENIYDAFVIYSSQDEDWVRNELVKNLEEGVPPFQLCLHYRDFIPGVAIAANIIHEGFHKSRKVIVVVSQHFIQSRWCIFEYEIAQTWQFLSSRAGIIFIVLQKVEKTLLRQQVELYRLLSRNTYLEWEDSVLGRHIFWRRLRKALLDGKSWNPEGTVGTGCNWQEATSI

Question: How did the “IL-10 expression after LPS” value [1] turn out when `O=C(NCCCNc1nc(Nc2cccc(NC(=O)N3CCCC3)c2)ncc1I)c1cccs1` [TBK1 inhibitor, BX-795, reference compound] was run?
Answer: Its value is “increased IL-10 expression”.

Question: And the “LPS-induced TNFα secretion” value [1]?
Answer: The value was “significantly reduced LPS-induced TNFα”.

Question: “hRetn N-peptide: synthesized hRetn N-terminal peptide (1-23 a.a.), SEQ ID NO: 2 (MEEAINERIQEVAGSLIFRAISS) (listed as Homo sapiens)” was tested. Which “competitive inhibition of Flag-tagged full-length hRetn binding to hTLR4” value [2] did it give?
Answer: Its value is “sufficient to abrogate binding of full-length hRetn”.

Question: And the “LPS-promoted surface MD2/TLR4 complex formation” value ([3]; human PBMC, flow cytometry)?
Answer: The value was “abrogated”.

Question: What about the “LPS binding to CD14+CD11b+ monocytes” value [3] of the same molecule?
Answer: Its value is “inhibited LPS binding”.

Question: What about the “LPS binding to CD14+CD11b+ monocytes” value ([3]; listed as N-pep) of the same molecule?
Answer: The value was “abrogated the binding of LPS in human PMBCs similar to full-length hRetn”.

Question: What about the “LPS-induced TNFα secretion” value [1] of the same molecule?
Answer: Its value is “significantly more efficient at suppressing LPS-induced TNFα than full-length hRetn”.
